{
  "source": "patent US20110268818A1",
  "about": "“NGAL-BINDING SIDEROPHORES AND USE THEREOF TO TREAT IRON DEFICIENCY AND IRON OVERLOAD” (priority 2008, published 2011)",
  "key": {"[1]": {"tested_on": "Mouse stromal cells", "assay": "Capture of NGAL:siderophore:55Fe by stromal cells", "assay_type": "cell-based", "settings": "bafilomycin inhibits vacuolar H+ ATPase", "procedure": "Capture of NGAL:Siderophore:Iron. Mouse stromal cells (10^5) were grown in MEM, 10% FCS for 24 hrs and FCS subsequently removed. […] Cells were washed 3 times and extracted with 0.2% SDS."}, "[2]": {"assay": "Siderophore:iron binding assay (paper chromatography)", "settings": "55Fe mobilised by compound on paper chromatogram developed in water; Yes/No", "source_text": "Siderophore:Iron Binding Assay. To test whether candidates bound iron directly, candidates (1 nmole) were mixed with ^55Fe (1 pmole), and then separated bound from free ^55Fe using paper chromatography developed in water.\nPaper chromatography: The Fe-Siderophore Binding Assay: The concept underlying the Ngal-siderophore-Fe binding assay is that the urinary molecule provides an iron binding siderophore, and that the Ngal protein provides the carrier which retains the siderophore:Fe on the 10 KDa filter. […] To directly test this idea, we will mix 55Fe with HMDB compounds and then separate bound from free 55Fe by using paper chromatography. […] The assay also provides an independent means to follow the purification of the urinary siderophore. Using this assay, we can measure the specific activity of the fractions to identify the peak activity, as well as to compare the urinary fraction with enterochelin to establish relative units of activity."}, "[3]": {"biological_target": "T1, NGAL (Homo sapiens, UniProt P80188)", "T1 construct": "made in house; host or cells: E. coli BL-21", "assay": "NGAL:siderophore:iron binding assay (retention on 10 kDa filter)", "settings": "for NGAL: Chelator: Fe % Retention: apoNGAL 10 μM, 55Fe, compound 10 μM, pH 7.4, washed on 10 kDa filter; for NGAL-siderophore-Fe binding activity (in words): iron retention by NGAL on filter", "procedure": "NGAL:Siderophore:Iron Binding Assays. […] After 60 minutes, the mixture was washed 3 times (YM-10) or alternatively gel filtered (PD-10, GE Biosciences). Ent loaded NGAL served as a positive control. Ferric citrate (1 mM) or Ent:iron (500 μM) served as competitors of ^55Fe binding.\nAfter 60 minutes at room temperature, the mixture was then washed 3 times on a 10-kDa membrane (Amicon YM-10; Millipore Corp.). Ngal loaded with iron-free enterochelin (rather than apo-Ngal) served as a positive control for iron capture. Ferric citrate (1 mM) or iron-loaded enterochelin (siderophore:Fe, […]) was used as a competitor of 55Fe binding."}, "[4]": {"biological_target": "T1, NGAL", "assay": "Release of ligands and iron from NGAL complexes by acidification", "assay_type": "physicochemical", "settings": "fluorescence and 55Fe release", "source_text": "FIGS. 6A-6C. Release of ligands from NGAL by acidification. […] Fluorescence was quenched by ligand binding. Upon acidification, the ligands were released and fluorescence returned to baseline. Subsequent basification, where relevant, caused rebinding. Note that NGAL:pyrogallol and 2,3-dihydroxybenzoic acid complexes required much lower pH for dissociation. (B) Release of ^55Fe from different NGAL:catecholate complexes by low pH washes on a 10 KDa microcon. For this comparison, the retention of iron at pH7.0 was defined as 100%. […] Data were presented as mean±Std.\nTo transport iron from plasma to cells there has to be a mechanism for releasing iron from the complex. Intracellular delivery of iron by transferring is known to require passage through acidified endosomes where iron is released. […] While the complex was stable at neutral pH, acidification below pH 7.0 progressively reversed ligand-dependent fluorescence quenching of NGAL and released iron (FIG. 6A, B).\nFluorescence quenching binding assay. […] The pH was adjusted until the fluorescence signal stopped changing, while fluorescence values were corrected for dilution. Data were analyzed by a nonlinear regression analysis using a one-site binding model (Kuzmic, P. (1996). Program DYNAFIT for the analysis of enzyme kinetic data: application to HIV proteinase. Anal. Biochem. 237, 260-273). […]"}, "[5]": {"biological_target": "T1, NGAL", "assay": "Fluorescence quenching binding assay", "procedure": "Fluorescence quenching binding assay. […] The pH was adjusted until the fluorescence signal stopped changing, while fluorescence values were corrected for dilution. […] Control experiments were performed to ensure the stability of the protein at experimental conditions, including the dilution and the addition of DMSO and ubiquitin."}, "[6]": {"assay": "Catechol and iron traffic to the kidney in vivo", "settings": "mouse"}, "[7]": {"assay": "Hydroxyl radicals detected by conversion of HPF to fluorescein", "assay_type": "biochemical", "settings": "catechol, ferric iron and H2O2", "source_text": "NGAL Blocks Iron Induced Hydroxyl Radicals. […] Hydroxyl radicals were detected by the conversion of HPF to fluorescein (Setsukinai, K., Urano, Y., Kakinuma, K., Majima, H. J., Nagano, T. (2003). Development of Novel Fluorescence Probes That Can Reliably Detect Reactive Oxygen Species and Distinguish Specific Species. J Biol Chem. 278, 170-3175) using […]."}, "[8]": {"assay": "Free catechol stability in solution monitored by NMR", "assay_type": "physicochemical", "settings": "monitored for 20 hrs by NMR, D2O", "source_text": "J. Agric Food Chem. 54, 5755-5762; Carmella, S. G., La, V. E. J., Hecht, S. S. (1982). […] Food Chem Toxicol. 20, 587-590) and aromatic amino acids (˜50%; Martin et al., 1982; Carmella et al., 1982; Bakke, O. M. (1969). Urinary simple phenols in rats fed purified and nonpurified diets. J. Nutr. 98, 209-216). […] Using urinary biomarkers to elucidate dose-related patterns of human benzene metabolism. Carcinogenesis 27, 772-781), whereupon they are sulfonated (Rennick, B., Quebbemann, A. (1970). Site of excretion of catechol and catecholamines: renal metabolism of catechol. Am. J. Physiol. 218, 1307-1312)."}, "[9]": {"assay": "Catechol sulfate stability followed by silica gel TLC", "assay_type": "physicochemical", "source_text": "FIG. 29 is a reproduction of Silical gel TLC developed by Dichlorlmethane: MeOH:H2O=5:1:0.1, and colored by 12."}, "[10]": {"assay": "Reduction of Fe3+ to Fe2+ detected with phenanthroline", "assay_type": "biochemical", "settings": "catechols 45 μM, ferric iron 15 μM, NGAL 15 μM"}},
  "data": [
    {"molecule": "CO/C1=C\\C(C)=C\\[C@@H](C)[C@@H](O)[C@@H](C)C/C(C)=C/C=C/[C@H](OC)[C@@H]([C@@H](C)[C@@H](O)[C@H](C)[C@@]2(O)C[C@@H](O)[C@H](C)[C@@H](C(C)C)O2)OC1=O", "note": "[bafilomycin]", "values": [
      {"measurement": "iron donation from NGAL:catechol:iron complex to cells", "setting": "[1]", "value": "blocked"}
    ]},
    {"molecule": "Cc1cccc(O)c1O", "note": "[3-methylcatechol]", "values": [
      {"measurement": "Fe: Chromatography", "setting": "[2]", "value": "Yes"},
      {"measurement": "NGAL: Chelator: Fe % Retention", "setting": "[3]", "value": 56, "unit": "%"},
      {"measurement": "NGAL-siderophore-Fe binding activity (in words)", "setting": "[3]", "value": "highest activities"},
      {"measurement": "pH at which the NGAL:ligand:iron complex dissociates", "setting": "[4]", "value": 5.5, "unit": "pH"}
    ]},
    {"molecule": "Oc1ccccc1O", "note": "[Catechol]", "values": [
      {"measurement": "NGAL: Chelator: Fe % Retention", "setting": "[3]", "value": 56, "unit": "%"},
      {"measurement": "NGAL-siderophore-Fe binding activity (in words)", "setting": "[3]", "value": "most active compound"},
      {"measurement": "NGAL-siderophore-Fe binding activity (in words)", "setting": "[3]; listed as catechol", "value": "highest activities"},
      {"measurement": "increase in binding affinity for NGAL in the presence of iron", "setting": "[5]; with iron vs without iron", "value": "10^5"},
      {"measurement": "pH at which the NGAL:ligand:iron complex dissociates", "setting": "[4]", "value": 5.5, "unit": "pH"},
      {"measurement": "clearance of free 14C-catechol by organs", "setting": "[6]", "value": "rapidly cleared"},
      {"measurement": "conversion of HPF to fluorescein (hydroxyl radical formation)", "setting": "[7]", "value": "Conversion of HPF to fluorescein occurs"},
      {"measurement": "stability of free catechol in solution", "setting": "[8]", "value": "stable in solution"}
    ]},
    {"molecule": "Cc1ccc(O)c(O)c1", "note": "[4-methylcatechol]", "values": [
      {"measurement": "Fe: Chromatography", "setting": "[2]", "value": "Yes"},
      {"measurement": "NGAL: Chelator: Fe % Retention", "setting": "[3]", "value": 29, "unit": "%"},
      {"measurement": "NGAL-siderophore-Fe binding activity (in words)", "setting": "[3]", "value": "highest activities"},
      {"measurement": "affinity for NGAL (in words)", "setting": "[5]", "value": "low affinity"}
    ]},
    {"molecule": "N[C@@H](Cc1c[nH]c2ccccc12)C(=O)O", "note": "[L-Tryptophan]", "values": [
      {"measurement": "Fe: Chromatography", "setting": "[2]", "value": "No"},
      {"measurement": "NGAL: Chelator: Fe % Retention", "setting": "[3]", "value": 5, "unit": "%"}
    ]},
    {"molecule": "N[C@@H](Cc1c[nH]c2ccc(O)cc12)C(=O)O", "note": "[5-Hydroxytryptophan]", "values": [
      {"measurement": "Fe: Chromatography", "setting": "[2]", "value": "No"},
      {"measurement": "NGAL: Chelator: Fe % Retention", "setting": "[3]", "value": 4, "unit": "%"}
    ]},
    {"molecule": "O=S(=O)([O-])Oc1ccccc1O.[Na+]", "values": [
      {"measurement": "NGAL: Chelator: Fe % Retention", "setting": "[3]", "value": 4, "unit": "%"},
      {"measurement": "stability in methanol at pH≦6", "setting": "[9]; incubated for 1 hour", "value": "decompose"},
      {"measurement": "stability in urine", "setting": "[9]; incubated for 48 hours", "value": "stable"}
    ]},
    {"molecule": "NGAL: Neutrophil Gelatinase Associated Lipocalin, recombinant protein (protein, UniProt P80188 21-198, looked up) Neutrophil …: QDSTSDLIPAPPLSKVPLQQNFQDNQFQGKWYVVGLAGNAILREDKDPQKMYATIYELKEDKSYNVTSVLFRKKKCDYWIRTFVPGCQPGEFTLGNIKSYPGLTSYLVRVVSTNYNQHAMVFFKKVSQNREYFKITLYGRTKELTSELKENFIRFSKSLGLPENHIVFPVPIDQCIDG", "values": [
      {"measurement": "reduction of ferric iron to ferrous iron (phenanthroline)", "setting": "[10]", "value": "blocked the reaction"},
      {"measurement": "conversion of HPF to fluorescein (hydroxyl radical formation)", "setting": "[7]", "value": "blocked the reaction"}
    ]}
  ]
}
